Data reported in PubChem BioAssay (NCI).
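In this assay, cells in 96-well plates receive the compound at five concentrations for 48 hours. Endpoints are linearly interpolated between the surrounding concentrations. TGI: concentration producing complete growth inhibition.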

Tests used:
Experiment in all cases: inhibition of tumour cell growth, NCI panel, 48 h
OVCAR-3 ovarian = system: OVCAR-3 ovarian
NCI-H460 lung = system: NCI-H460 lung
U251 CNS = system: U251 CNS
SK-MEL-2 melanoma = system: SK-MEL-2 melanoma
LOX IMVI melanoma = system: LOX IMVI melanoma
NCI-H226 lung = system: NCI-H226 lung
CCRF-CEM leukemia = system: CCRF-CEM leukemia
MDA-MB-435 = system: MDA-MB-435
M14 melanoma = system: M14 melanoma
SR leukemia = system: SR leukemia

Structure (SMILES)	TGI (OVCAR-3 ovarian)	TGI (NCI-H460 lung)	TGI (U251 CNS)	TGI (SK-MEL-2 melanoma)	TGI (LOX IMVI melanoma)	TGI (NCI-H226 lung)	TGI (CCRF-CEM leukemia)	TGI (MDA-MB-435)	TGI (M14 melanoma)	TGI (SR leukemia)
COc1ccc(C2COc3cc(OC(C)=O)c(OC(C)=O)cc3C2)cc1 (centres undefined)	39.9 µM	41.7 µM	24.3 µM	58.7 µM	37.2 µM	52.9 µM	16.4 µM	–	–	–
CC(=O)N(C)c1ccc(Nc2cc(C)[nH]c3ccc4ncnc4c23)cc1	27.5 µM	12.3 µM	30.6 µM	23.2 µM	15.9 µM	19.5 µM	34.9 µM	23.3 µM	21.5 µM	23 µM
COc1cc(/C=C2\C[C@H]3[C@@H]4CCc5cc(O)ccc5[C@H]4CC[C@]3(C)C2=O)cc(OC)c1OC	26.9 µM	> 100 µM	38.1 µM	31.9 µM	30.7 µM	32 µM	27.4 µM	48.6 µM	37.7 µM	10.7 µM
C=C1C(=O)C[C@H]2C(=C)C(=O)O[C@@H]2C2C1CC[C@@]2(C)O (some centres undefined)	35.8 µM	43.1 µM	> 100 µM	56.6 µM	68.8 µM	54.3 µM	> 100 µM	> 100 µM	33.5 µM	> 100 µM
Cc1cc(C)nc(NC(=O)c2ccc(Br)s2)c1	> 100 µM	> 100 µM	> 100 µM	> 100 µM	> 100 µM	> 100 µM	15.6 µM	> 100 µM	79.5 µM	> 100 µM
c1nc(OCC2CCCCC2)c2[nH]cnc2n1	> 100 µM	> 100 µM	> 100 µM	> 100 µM	> 100 µM	> 100 µM	> 100 µM	> 100 µM	> 100 µM	–
Nc1c2c(nc3cc(F)c(F)cc13)CCC2	> 100 µM	54 µM	> 100 µM	> 100 µM	> 100 µM	> 100 µM	–	> 100 µM	> 100 µM	> 100 µM
COc1ccc(N2C(=O)C(=O)N(c3ccccc3[N+](=O)[O-])C2=S)cc1	–	> 100 µM	> 100 µM	46 µM	32.4 µM	> 100 µM	> 100 µM	88.2 µM	–	> 100 µM
O=C1NC(NNc2ccccc2)=N/C1=C\c1ccccc1O	> 100 µM	> 100 µM	> 100 µM	> 100 µM	> 100 µM	> 100 µM	–	> 100 µM	> 100 µM	> 100 µM
CN(CC(=O)O)c1ncc2c(n1)-c1ccccc1SC2	–	> 100 µM	> 100 µM	> 100 µM	> 100 µM	–	> 100 µM	> 100 µM	> 100 µM	> 100 µM
CCCCCCCCCC1(N=[N+]=[N-])C(=O)c2ccccc2N(C)C1=O (centres undefined)	56.4 µM	> 100 µM	6.31 µM	69 µM	34.3 µM	–	> 100 µM	6.88 µM	64.6 µM	> 100 µM
O=C1C(Cl)N(c2ccc(Cl)cc2)C1c1c[nH]c2ccccc12 (centres undefined)	36.1 µM	30.1 µM	25.7 µM	29.3 µM	–	–	> 100 µM	–	42.3 µM	39.4 µM
COc1ccc(N2C(=O)CC(C3CC(C(C)(C)C)CCC3=O)C2=O)cc1 (centres undefined)	–	> 100 µM	> 100 µM	–	–	> 100 µM	> 100 µM	> 100 µM	> 100 µM	> 100 µM
O=C(O)CC1NC(/C(=C/c2ccccc2)NC(=O)c2ccccc2)OC1=O (centres undefined)	51.2 µM	69.6 µM	34.5 µM	66.6 µM	36 µM	98.6 µM	86.6 µM	67 µM	35.2 µM	–
CC1(C)CC(=O)c2[nH]c3ccccc3c2CC(=O)NCCc2cn1cn2	> 100 µM	> 100 µM	> 100 µM	> 100 µM	> 100 µM	> 100 µM	–	> 100 µM	> 100 µM	> 100 µM
CC(C)(C)[Si](C)(C)OCC1OC(n2ccc(N)nc2=O)C(O[Si](C)(C)C(C)(C)C)C1O[Si](C)(C)C(C)(C)C (centres undefined)	3.3 µM	3.7 µM	–	4.89 µM	3.23 µM	2.86 µM	–	–	3.24 µM	6.66 µM
CC(C)(Cl)C(Br)CCC(C)(Cl)C(Br)CBr (centres undefined)	41.9 µM	40.5 µM	69.5 µM	35.4 µM	–	60.6 µM	76.9 µM	73.6 µM	> 100 µM	22.2 µM
CC(C)(C)OC(=O)N1CCc2[nH][nH]c(=O)c2C1	> 100 µM	> 100 µM	> 100 µM	–	–	> 100 µM	> 100 µM	> 100 µM	> 100 µM	> 100 µM
Nc1ncnc2c1ccn2C/C=C\CO	> 100 µM	> 100 µM	> 100 µM	> 100 µM	> 100 µM	–	> 100 µM	> 100 µM	> 100 µM	–
CC(=O)c1ccc(NCc2cc(O)ccc2O)cc1	19.8 µM	39.9 µM	54.5 µM	57.3 µM	74.3 µM	> 100 µM	> 100 µM	58.6 µM	38.4 µM	–
O=C(O)c1ccc(N=C(C(=Nc2ccc(C(=O)O)cc2)c2ccccc2)c2ccccc2)cc1	> 100 µM	> 100 µM	> 100 µM	> 100 µM	> 100 µM	> 100 µM	–	> 100 µM	> 100 µM	> 100 µM
Oc1c(C2=NNC(c3ccc(Cl)cc3Cl)C2)ccc2ccccc12 (centres undefined)	> 100 µM	> 100 µM	> 100 µM	> 100 µM	–	> 100 µM	32.8 µM	> 100 µM	> 100 µM	35 µM
OCCCCCCCCCCCOc1ccc(C2OCC3(CO2)COC(c2ccc(OCCCCCCCCCCCO)cc2)OC3)cc1 (centres undefined)	> 50 µM	> 50 µM	> 50 µM	> 50 µM	> 50 µM	> 50 µM	–	> 50 µM	> 50 µM	> 50 µM
